# Laboratory results as given in patent US7622448B2, “Compositions suitable for topical application to the skin” (L'Oreal, priority 2003, dated 2009).
# Tested on: isolated stratum corneum
# Test: Desquamating effect: counting corneocytes released from isolated stratum corneum
# Details: compound 2% by weight in 0.1% Triton X100 PBS buffer pH 7.4, 37° C., 24 hours; for Average number of corneocytes released, 1st skin sample: control 1; for Average number of corneocytes released, 2nd skin sample: control 4
# Procedure: The test consists in counting the corneocytes released after incubation of batches of isolated stratum corneum in the presence of three test compounds, corresponding to compounds F, G and K of Table 1.
# Compounds F, G and K were each dissolved to 2% by weight in a 0.1% Triton X100 PBS buffer at pH 7.4.
# Two different samples of stratum corneum isolated by trypsin/heat from plastic surgeries were used. SCI discs 4 mm in diameter were cut out using a punch and placed in the bottom of a 96-well dish. 50 μl of buffer containing the test compound were added to each well. Controls without compound were prepared. The tests were repeated three times. The incubation was performed at 37° C. with stirring for 24 hours. 10 μl were then taken up and placed in a Mallassez cell. The freed corneocytes were counted by microscope.
Structure (SMILES),"Average number of corneocytes released, 1st skin sample","Average number of corneocytes released, 2nd skin sample"
"CNC(=O)C(Cc1ccccc1)(C(=O)NC)[C@@H]1O[C@H](C)[C@H](O)[C@H](O)[C@H]1O [Compound F, 2-benzyl-N,N′-dimethyl-2-(3,4,5-trihydroxy-6-methyltetrahydropyran-2-yl)malonamide]",5,12
CNC(=O)C(Cc1ccccc1)(C(=O)NC)[C@@H]1OC[C@@H](O)[C@H](O)[C@H]1O [G],13,12
CNC(=O)C(Cc1ccccc1)(C(=O)NC)[C@@H]1O[C@H](CO)[C@@H](O)[C@H](O)[C@H]1O [K],7,5
